System: gut microbiota
Assay: Gut microbiome analysis (16S rRNA sequencing of fecal samples) in STAM model of NASH
Format: in vivo, C57BL/6J mice
Excerpt: The study is reported in accordance with Animal Research: Reporting of In Vivo Experiments (ARRIVE) guidelines. C57BL/6J mice were obtained from Japan SLC, Inc. (Japan). All animals used in this study were cared for under the following guidelines: Act on Welfare and Management of Animals (Ministry of the Environment, Japan, Act No. 105 of Oct. 1, 1973), standards relating to the care and management of laboratory animals and relief of pain (Notice No. 88 of the Ministry of the Environment, Japan, Apr. 28, 2006) and the guidelines for proper conduct of animal experiments (Science Council of Japan, Jun. 1, 2006). Protocol approvals were obtained from SMC Laboratories, Japan's IACUC (Study reference no: […] Mice were maintained in a specific pathogen-free (SPF) facility under controlled conditions of temperature (23±3° C.), humidity (50±20%), lighting (12-hour artificial light and dark cycles; light from 8:00 to 20:00) and air exchange. The STAM model of NASH was induced as previously described [D10]. Mice were given a single subcutaneous injection of 200 μg streptozotocin (STZ, Sigma-Aldrich, USA) solution 2 days after birth and fed with a high-fat diet (HFD, 57 kcal % fat, Cat #HFD32, CLEA Japan, Inc., Japan) from 4-9 weeks of age. All mice develop liver steatosis and diabetes and at […] mice had established steatohepatitis, histologically. Studygroups: There were five study groups, described below. Eight mice were included in each study group. Eight NASH mice were orally administered vehicle supplemented with AFO-202 Beta Glucan at a dose of 1 mg/kg in a volume of 5 mL/kg once daily from 6 to 9 weeks of age. Eight NASH mice were orally administered vehicle supplemented with Telmisartan at a dose of 10 mg/kg once daily from 6 to 9 weeks of age. Frequency: Fecal samples were collected at the 6 weeks of age (before administration) and 9 weeks of age (before sacrifice). Procedure: At 6 weeks of age, fecal samples were collected from each mouse by clean catch method. […] A sterile petri dish was placed on the bench. Gently massage the abdomen, position the bottom of mouse over a fresh petri dish, and collect 1-2 fecal pellets. At sacrifice, fecal samples were aseptically collected from cecum. The tubes with feces were placed on ice immediately. These tubes were snap frozen in liquid nitrogen and stored at -80° C. for shipping. In this analysis, the 16S rRNA sequence data acquired by the next-generation sequencer from the fecal […] was used to perform community analysis using the QIIME2 program for microbial community analysis. The raw read data in FASTQ format output from the next-generation sequencer was trimmed to remove adapter sequences and low QV regions that may be included in the data. Cutadapt was used to remove adapter sequences from DNA sequencing reads. Trimmomatic was used as read trimming tool for Illumina NGS data. The adapter sequence was trimmed using the adapter trimming program “cutadapt” if the Trimming of the region at the end of the read sequence overlapped the corresponding sequence by at least one base (mismatch tolerance: 20%). When reads containing N were present in at least one of Read1 and Read2, both Read1 and Read2 were removed. Trimming of low QV regions was performed on the read data after processing using the QV trimming program “Trimmomatic” under the following conditions. The window of 20 bases is slid from the 5' side, and the area where the average QV is less than 20 is trimmed. After trimming, only the reads with more than 50 bases remaining in both Read1 and Read2 were taken as output. The microbial community analysis based on 16S rRNA sequence was performed on the sequence data trimmed in the previous section using the microbial community analysis program “QIIME2”. The annotation program “sklearn” included in QIIME2 is used to annotate the ASV (OTU) sequences. […]

## CCCc1nc2c(C)cc(-c3nc4ccccc4n3C)cc2n1Cc1ccc(-c2ccccc2C(=O)O)cc1 [Telmisartan]
post, line r79
  Abundance Lachnospiraceae/[Ruminococcus]/gnavus: 260
post, line r80
  Abundance Bacteroidaceae/Bacteroides/—: 1596
post, line r81
  Abundance S24-7/—/—: 125
post, line r83
  Abundance Lachnospiraceae/[Ruminococcus]/gnavus: 281
post, line r84
  Abundance Ruminococcaceae/Oscillospira/—: 393
post, line r86
  Abundance Alcaligenaceae/Sutterella/—: 63
post, line r87
  Abundance S24-7/—/—: 54
post, line r90
  Abundance Other/Other/Other: 0
post, line r91
  Abundance Lachnospiraceae/[Ruminococcus]/gnavus: 325
post, line r92
  Abundance S24-7/—/—: 153
post, line r93
  Abundance Rikenellaceae/—/—: 134
post, line r94
  Abundance Lachnospiraceae/[Ruminococcus]/gnavus: 30
post, line r95
  Abundance Lachnospiraceae/—/—: 359
post, line r96
  Abundance Clostridiaceae/Other/Other: 39
post, line r97
  Abundance Lachnospiraceae/—/—: 239
post, line r98
  Abundance Ruminococcaceae/Oscillospira/—: 138
post, line r99
  Abundance Enterococcaceae/Enterococcus/—: 0
post, line r100
  Abundance Rikenellaceae/—/—: 96
post, line r101
  Abundance S24-7/—/—: 79
post, line r102
  Abundance Lactobacillaceae/Lactobacillus/reuteri: 0
post, line r103
  Abundance Bacteroidaceae/Bacteroides/acidifaciens: 127
post, line r104
  Abundance Ruminococcaceae/Oscillospira/—: 451
post, line r105
  Abundance Enterobacteriaceae/Escherichia/coli: 0
post, line r106
  Abundance Ruminococcaceae/Oscillospira/—: 280
post, line r107
  Abundance —/—/—: 254
post, line r108
  Abundance S24-7/—/—: 92
post, line r109
  Abundance —/—/—: 0
post, line r110
  Abundance Other/Other/Other: 251
post, line r111
  Abundance Lachnospiraceae/—/—: 163
post, line r112
  Abundance Lachnospiraceae/[Ruminococcus]/gnavus: 63
post, line r113
  Abundance Lachnospiraceae/—/—: 117
post, line r114
  Abundance Enterobacteriaceae/Klebsiella/Other: 33
post, line r115
  Abundance Lachnospiraceae/—/—: 187
post, line r117
  Abundance —/—/—: 261
post, line r118
  Abundance Lactobacillaceae/Lactobacillus/—: 0
post, line r119
  Abundance Other/Other/Other: 248
post, line r120
  Abundance —/—/—: 0
post, line r121
  Abundance Erysipclotrichaceae/Allobaculum/—: 59
post, line r122
  Abundance —/—/—: 84
post, line r123
  Abundance Lachnospiraceae/—/—: 271
post, line r124
  Abundance —/—/—: 173
post, line r125
  Abundance Other/Other/Other: 269
post, line r126
  Abundance Lactobacillaceae/Lactobacillus/reuteri: 0
post, line r127
  Abundance Ruminococcaceae/Oscillospira/—: 273
post, line r128
  Abundance Lachnospiraceae/—/—: 139
post, line r129
  Abundance S24-7/—/—: 125
post, line r130
  Abundance S24-7/—/—: 111
post, line r131
  Abundance Lachnospiraceae/—/—: 119
post, line r133
  Abundance S24-7/—/—: 74
post, line r134
  Abundance Lachnospiraceae/—/—: 98
post, line r135
  Abundance —/—/—: 376
post, line r136
  Abundance Coriobacteriaceae/Adlercreutzia/—: 30
post, line r137
  Abundance —/—/—: 118
post, line r138
  Abundance Clostidiaceae/Other/Other: 0
post, line r139
  Abundance Turicibacteraceae/Turicibacter/—: 0
post, line r140
  Abundance Ruminococcaceae/Ruminococcus/—: 143
post, line r141
  Abundance Ruminococcaceae/Oscillospira/—: 119
post, line r142
  Abundance Dehalobacteriaceae/Dehalobacterium/—: 268
post, line r143
  Abundance Staphylococcaceae/Staphylococcus/Other: 34
post, line r144
  Abundance Rikenellaceae/—/—: 97
post, line r145
  Abundance Lachnospiraceae/—/—: 98
post, line r146
  Abundance —/—/—: 68
post, line r147
  Abundance Staphylococcaceae/Staphylococcus/sciuri: 41
post, line r148
  Abundance —/—/—: 0
post, line r149
  Abundance Ruminococcaceae/Ruminococcus/—: 124
post, line r150
  Abundance Coriobacteriaceae/Adlercreutzia/—: 0
post, line r151
  Abundance Ruminococcaceae/Oscillospira/—: 120
post, line r152
  Abundance Lachnospiraceae/Clostridium/Other: 40
post, line r153
  Abundance Lachnospiraceae/Coprococcus/—: 85
post, line r154
  Abundance Desulfovibrionaceae/—/—: 148
post, line r155
  Abundance —/—/—: 103
post, line r156
  Abundance Lachnospiraceae/—/—: 272
post, line r157
  Abundance Dehalobacteriaceae/Dehalobacterium/—: 239
post, line r158
  Abundance Coriobacteriaceae/Adlercreutzia/—: 0
post, line r159
  Abundance Lachnospiraceae/—/—: 119
post, line r160
  Abundance Lachnospiraceae/—/—: 14
post, line r162
  Abundance S24-7/—/—: 51
post, line r163
  Abundance Streptococcaceae/Streptococcus/—: 44
post, line r164
  Abundance Lachnospiraceae/[Ruminococcus]/gnavus: 37
post, line r165
  Abundance Lachnospiraceae/—/—: 173
post, line r166
  Abundance Lachnospiraceae/—/—: 10
post, line r167
  Abundance Coriobacteriaceae/Adlercreutzia/—: 8
post, line r168
  Abundance Lachnospiraceae/—/—: 57
post, line r169
  Abundance Erysipelotrichaceae/Clostridium/cocleatum: 119
post, line r171
  Abundance Lachnospiraceae/—/—: 81
post, line r172
  Abundance Bacteroidaceae/Bacteroides/—: 468
post, line r173
  Abundance Ruminococcaceae/Oscillospira/—: 53
post, line r174
  Abundance Ruminococcaceae/—/—: 72
post, line r175
  Abundance Lachnospiraceae/Other/Other: 90
post, line r176
  Abundance Lachnospiraceae/Dorea/—: 154
post, line r177
  Abundance Lachnospiraceae/—/—: 94
post, line r178
  Abundance S24-7/—/—: 0
post, line r179
  Abundance Lachnospiraceae/—/—: 138
post, line r180
  Abundance Lactobacillaceae/Lactobaccilus/Other: 0
post, line r181
  Abundance —/—/—: 48
post, line r182
  Abundance Ruminococcaceae/Oscillospira/—: 101
post, line r184
  Abundance S24-7/—/—: 71
post, line r185
  Abundance [Mogibacteriaceae]/—/—: 28
post, line r186
  Abundance Peptococcaceae/—/—: 42
post, line r187
  Abundance —/—/—: 40
post, line r188
  Abundance —/—/—: 213
post, line r189
  Abundance S24-7/—/—: 19
Pre (baseline), line r191
  Abundance: Ruminococcaceae, Oscillospira, —: 97
Pre (baseline), line r192
  Abundance: Lachnospiraceae, [Ruminococcus], gnavus: 33
